Experimental data as given in ChEMBL document CHEMBL3576842, “Selenium-containing chrysin and quercetin derivatives: attractive scaffolds for cancer therapy” (J Med Chem, 2015).
The source made the active and inactive calls. The calls are words filed in the database; no cut-off is given here.

Key:
A-431 [1] = assay: Cytotoxicity against human A431 cells assessed as cell growth inhibition after 72 hrs by MTT assay; format: functional, cell-based; conditions: A-431, 72 h
NCI/ADR-RES [2] = assay: Selectivity index, ratio of IC50 for HEK293 cells to IC50 for human MCF7/ADR cells; format: functional
HEK293 [3] = assay: Selectivity index, ratio of IC50 for HEK293 cells to IC50 for human 2008 cells; format: functional
C13 [4] = assay: Selectivity index, ratio of IC50 for HEK293 cells to IC50 for human C13 cells; format: functional
A-431 [5] = assay: Resistance factor, ratio of IC50 for cisplatin-resistant human A431 cells to IC50 for human A431 cells; format: functional
2008 = assay: Cytotoxicity against human 2008 cells assessed as cell growth inhibition after 72 hrs by MTT assay; format: functional, cell-based; conditions: Homo sapiens, 2008, 72 h
[6] = Cytotoxicity against human MCF7/ADR cells assessed as cell growth inhibition after 72 hrs by MTT assay; format: functional, cell-based; conditions: NCI/ADR-RES
HCT-15 = assay: Cytotoxicity against human HCT15 cells assessed as cell growth inhibition after 72 hrs by MTT assay; format: functional, cell-based; conditions: HCT-15, 72 h
HEK293 [7] = assay: Selectivity index, ratio of IC50 for HEK293 cells to IC50 for human BxPC3 cells; format: functional
HEK293 [8] = assay: Selectivity index, ratio of IC50 for HEK293 cells to IC50 for cisplatin-resistant human A431 cells; format: functional
HEK293 [9] = assay: Cytotoxicity against HEK293 cells assessed as cell growth inhibition after 72 hrs by MTT assay; format: cell-based; conditions: Homo sapiens, HEK293, 72 h
[10] = Cytotoxicity against human C13 cells assessed as cell growth inhibition after 72 hrs by MTT assay; format: functional, cell-based; conditions: C13, 72 h
MCF7 [11] = assay: Cytotoxicity against human MCF7 cells assessed as cell growth inhibition after 72 hrs by MTT assay; format: functional, cell-based; conditions: MCF7, 72 h
A-375 = assay: Cytotoxicity against human A375 cells assessed as cell growth inhibition after 72 hrs by MTT assay; format: functional, cell-based; conditions: A-375, 72 h
A-431 [12] = assay: Cytotoxicity against cisplatin-resistant human A431 cells assessed as cell growth inhibition after 72 hrs by MTT assay; format: functional, cell-based; conditions: A-431, 72 h
[13] = Cytotoxicity against human BxPC3 cells assessed as cell growth inhibition after 72 hrs by MTT assay; format: functional, cell-based; conditions: BXPC-3, 72 h
HEK293 [14] = assay: Selectivity index, ratio of IC50 for HEK293 cells to IC50 for human HCT15 cells; format: functional
[15] = Antioxidant activity assessed as DPPH radical scavenging activity at 1 mM after 1 hr; format: physicochemical; conditions: 1000 µM
HEK293 [16] = assay: Selectivity index, ratio of IC50 for HEK293 cells to IC50 for human A375 cells; format: functional
HEK293 [17] = assay: Selectivity index, ratio of IC50 for HEK293 cells to IC50 for human A431 cells; format: functional
HEK293 [18] = assay: Selectivity index, ratio of IC50 for HEK293 cells to IC50 for human MCF7 cells; format: functional
[19] = Antioxidant activity assessed as DPPH radical scavenging activity after 1 hr; format: physicochemical
C13 [20] = assay: Resistance factor, ratio of IC50 for cisplatin-resistant human C13 cells to IC50 for human 2008 cells; format: functional
NCI/ADR-RES [21] = assay: Resistance factor, ratio of IC50 for human MCF7/ADR cells to IC50 for human MCF7 cells; format: functional
MCF7 [22] = assay: Decrease in total glutathione level in human MCF7 cells at IC50 after 48 hrs by spectrophotometric analysis; format: functional
MCF7 [23] = assay: Induction of apoptosis in human MCF7 cells assessed as decrease in mitochondrial membrane potential at IC50 after 48 hrs by flow cytometry; format: functional
[24] = molecular target: T1, Glutathione reductase, mitochondrial (Homo sapiens) (UniProt P00390); assay: Effect on glutathione reductase activity in human MCF7 cells using GSSG as substrate at 1.25 to 20 uM after 24 hrs by spectrophotometric analysis; format: cell-based
T1 sequence (whole entry): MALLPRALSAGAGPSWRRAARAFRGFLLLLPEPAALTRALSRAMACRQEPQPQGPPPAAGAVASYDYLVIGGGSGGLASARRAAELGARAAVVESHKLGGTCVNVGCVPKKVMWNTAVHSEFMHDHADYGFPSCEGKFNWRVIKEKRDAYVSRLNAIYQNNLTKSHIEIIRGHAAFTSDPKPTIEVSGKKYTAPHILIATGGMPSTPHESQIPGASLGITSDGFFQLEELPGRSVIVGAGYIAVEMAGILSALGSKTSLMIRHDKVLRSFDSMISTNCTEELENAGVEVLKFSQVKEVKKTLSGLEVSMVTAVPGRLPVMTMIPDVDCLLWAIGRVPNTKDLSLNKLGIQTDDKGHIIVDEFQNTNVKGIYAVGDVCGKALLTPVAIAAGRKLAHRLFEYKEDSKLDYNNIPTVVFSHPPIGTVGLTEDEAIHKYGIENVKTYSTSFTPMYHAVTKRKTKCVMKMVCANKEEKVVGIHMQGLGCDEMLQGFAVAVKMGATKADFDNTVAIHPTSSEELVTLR

MCF7 [25] = assay: Drug uptake in human MCF7 cells assessed as intracellular Se accumulation at 12.5 to 25 uM after 12 to 24 hrs by GF-AAS analysis; format: ADME, cell-based; conditions: mcf7, 25 µM
MCF7 [26] = assay: Induction of apoptosis in human MCF7 cells assessed as brightly stained nuclei, chromatin condensation and fragmentation at IC50 after 48 hrs by Hoechst 33258/PI fluorescent staining analysis; format: functional, cell-based
[27] = molecular target: T2, Thioredoxin reductase (Homo sapiens) (UniProt Q16881+Q9NNW7+Q86VQ6); assay: Inhibition of thioredoxin reductase activity in human MCF7 cells at 20 uM after 24 hrs by DTNB reduction assay; format: cell-based
MCF7 [28] = assay: Induction of apoptosis in human MCF7 cells assessed as caspase-3 activation using DEVD-AFC as substrate at IC50 after 48 hrs by spectrofluorimeter analysis; format: functional
[29] = molecular target: T2, Thioredoxin reductase (Homo sapiens); assay: Increase in thioredoxin reductase activity in HEK293 cells at 0.0625 to 0.625 uM after 24 hrs by DTNB reduction assay; format: cell-based; parameters: scale not given: the % may be the effect or the level left
MCF7 [30] = assay: Increase in oxidant species production in human MCF7 cells at 25 uM by CM-DCFDA based fluorescence plate reader analysis; format: functional, cell-based
MCF7 [31] = assay: Increase in oxidized glutathione level in human MCF7 cells at IC50 after 48 hrs by spectrophotometric analysis; format: functional
MCF7 [32] = assay: Effect on glutathione peroxidase activity in human MCF7 cells using tert-butyl hydroperoxide and GSH as substrate at 1.25 to 20 uM after 24 hrs by spectrophotometric analysis; format: cell-based
MCF7 [33] = assay: Anticlonogenic activity against human MCF7 cells assessed as inhibition of clonogenic expansion after 6 hrs; format: functional, cell-based
MCF7 [34] = assay: Decrease in total sulfhydryl gropus in human MCF7 cells at IC50 after 24 hrs by DTNB reduction assay; format: functional
[35] = Antioxidant activity assessed as glutathione peroxidase-like activity measured as time required to oxidize dithiothretol by 50% after addition of H2O2 at 3.24 umol; format: physicochemical
[36] = molecular target: T2, Thioredoxin reductase (Homo sapiens); assay: Inhibition of thioredoxin reductase activity in human MCF7 cells after 24 hrs by DTNB reduction assay; format: cell-based

Row | SMILES | IC50 (A-431 [1]) | Ratio IC50 (NCI/ADR-RES [2]) | Ratio IC50 (HEK293 [3]) | Ratio IC50 (C13 [4]) | Ratio IC50 (A-431 [5]) | IC50 2008 | IC50 [6] | IC50 (HCT-15) | Ratio IC50 (HEK293 [7]) | Ratio IC50 (HEK293 [8]) | IC50 (HEK293 [9]) | IC50 [10] | IC50 (MCF7 [11]) | IC50 (A-375) | IC50 (A-431 [12]) | IC50 [13] | Ratio IC50 (HEK293 [14]) | Ratio IC50 (HEK293 [16]) | Ratio IC50 (HEK293 [17]) | Ratio IC50 (HEK293 [18]) | further results
1 | COc1cc(O)c2c(=O)c(OC)c(-c3ccc(OC)c(OC)c3)oc2c1 [RETUSIN] | 57.5 µM | 1.6 | 1.6 | 1.6 | 1.4 | > 100 µM | > 100 µM | 68.1 µM | 1.6 | 1.6 | 142 µM | > 100 µM | > 100 µM | 69.7 µM | 82.2 µM | > 100 µM | 1.6 | 1.6 | 1.6 | 1.6 | Activity [15]: 2.5%
2 | COc1cc(O)c2c(=S)c(OC)c(-c3ccc(OC)c(OC)c3)oc2c1 |  |  |  |  |  |  |  |  |  |  |  |  |  |  |  |  |  |  |  |  | Activity [15]: 18.3%
3 | O=C1O[C@H]([C@@H](O)CO)C(O)=C1O [ASCORBIC ACID] |  |  |  |  |  |  |  |  |  |  |  |  |  |  |  |  |  |  |  |  | IC50 [19]: 6 µM
4 | O=c1c(O)c(-c2ccc(O)c(O)c2)oc2cc(O)cc(O)c12 [QUERCETIN] | 23 µM | 2.5 | 2.5 | 2.5 | 1.5 | 21.2 µM | 22.2 µM | 16.4 µM | 2.5 | 2.5 | 54.6 µM | 37.6 µM | 20.9 µM | 25.1 µM | 34.4 µM | 24.1 µM | 2.5 | 2.5 | 2.5 | 2.5 | Ratio IC50 (C13 [20]): 1.8; IC50 [19]: 28 µM; Activity [15]: 95.6%; Ratio IC50 (NCI/ADR-RES [21]): 1.1
5 | Oc1cc(O)c2c(=S)cc(-c3ccccc3)oc2c1 | 66.3 µM | 1.2 | 1.2 | 1.2 | 1.6 | 41.1 µM | 72.3 µM | 56.6 µM | 1.2 | 1.2 | 68.3 µM | 58.5 µM | 70.4 µM | 36.5 µM | 98.4 µM | 64.4 µM | 1.2 | 1.2 | 1.2 | 1.2 | Ratio IC50 (C13 [20]): 1.4; IC50 [19]: 4600 µM; Ratio IC50 (NCI/ADR-RES [21]): 1
6 | Oc1cc(O)c2c(=[Se])cc(-c3ccccc3)oc2c1 | 1.61 µM | 3.7 | 3.7 | 3.7 | 2 | 2.87 µM | 1.96 µM | 3.17 µM | 3.7 | 3.7 | 8.13 µM | 4.04 µM | 2.25 µM | 1.09 µM | 3.18 µM | 2.31 µM | 3.7 | 3.7 | 3.7 | 3.7 | inhibition (INH) (MCF7 [22]): 60%; fold change (FC) (MCF7 [23]): 4; Activity [24]: inactive; Drug uptake (MCF7 [25]): Active; Activity (MCF7 [26]): Active; inhibition [27]: 75%; fold change (FC) (MCF7 [28]): 4; Ratio IC50 (C13 [20]): 1.4; Activity [29]: 35%; Activity (MCF7 [30]): Active; fold change (FC) (MCF7 [31]): 4; Activity (MCF7 [32]): inactive; inhibition (MCF7 [33]): Active; IC50 [19]: 659 µM; inhibition (INH) (MCF7 [34]): 60%; Ratio IC50 (NCI/ADR-RES [21]): 0.9; Time [35]: 3.62 min
7 | COc1cc(O)c2c(=[Se])c(OC)c(-c3ccc(OC)c(OC)c3)oc2c1 | 3.11 µM | 5.1 | 5.1 | 5.1 | 1.2 | 2.09 µM | 3.35 µM | 2.23 µM | 5.1 | 5.1 | 17.3 µM | 2.29 µM | 3.08 µM | 2.21 µM | 3.78 µM | 2.42 µM | 5.1 | 5.1 | 5.1 | 5.1 | inhibition (MCF7 [22]): Active; fold change (FC) (MCF7 [23]): 4; Activity [24]: inactive; Drug uptake (MCF7 [25]): Active; Activity (MCF7 [26]): Active; fold change (FC) (MCF7 [28]): 4; inhibition [36]: Active; Activity [29]: 35%; Activity (MCF7 [32]): inactive; inhibition (MCF7 [33]): Active; IC50 [19]: 74 µM; inhibition (INH) (MCF7 [34]): 60%; Activity [15]: 90.4%; Ratio IC50 (NCI/ADR-RES [21]): 1.1; Time [35]: 4.34 min
8 | O=c1cc(-c2ccccc2)oc2cc(O)cc(O)c12 [CHRYSIN] | 29.4 µM | 1.9 | 1.9 | 1.9 | 2 | 28.6 µM | 51 µM | 54.4 µM | 1.9 | 1.9 | 77.5 µM | 49.7 µM | 50.3 µM | 33.2 µM | 60.1 µM | 54.3 µM | 1.9 | 1.9 | 1.9 | 1.9 | Ratio IC50 (C13 [20]): 1.7; Ratio IC50 (NCI/ADR-RES [21]): 1
